Measured values reported in PubChem BioAssay AID179 (DTP/NCI, 2004).
Activity calls are given as the source filed them.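 Rule for the calls: active = compounds giving half or more protection of infected cells from virus-caused growth loss, again on retest; inactive = the rest.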

Test system: CEM cells HIV-1 protection, formazan growth assay
Test: NCI AIDS Antiviral Assay
Details: for IC50: measured here: growth of uninfected CEM cells
Method in brief: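 Human CEM cells, uninfected and HIV-1-infected, received five drug concentrations, and growth was read by soluble formazan assay. Compounds giving at least 50% protection were retested; reproducible 100% protection defined confirmed active.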

Compound	EC50 [µM]	IC50 [µM]	outcome
CCc1cccc(C(C)C)c1NC(=O)C(=O)CC(=O)c1c(C)n([O-])c2ccccc2[n+]1=O	> 3.31	> 3.31	–
COC(=O)[C@H](Cc1c[nH]c2ccccc12)NP(=O)(O)OC[C@H]1O[C@@H](n2cc(C)c(=O)[nH]c2=O)C[C@@H]1N=[N+]=[N-]	28.2	> 200	–
C(=N/NC1=NCCN1)/c1c2ccccc2c(/C=N\NC2=NCCN2)c2ccccc12	> 1.07	0.0363	–
CCOC(=O)C(CCN1CCC2(CC1)C(=O)N(C)CN2c1ccccc1)C(=O)OCC	> 200	> 200	–
O=[n+]1c2c(n([O-])c3ccccc31)-c1cccc3cccc-2c13	> 200	129	–
O=C(O)C1CC(O)CN1S(=O)(=O)Cc1ccccc1 (stereo unspecified)	> 200	> 200	–
CN(C)CCNC(=O)c1ccc(Cl)c2c(Nc3ccc(S(=O)(=O)N=C(N)N)cc3)c3ccccc3nc12	–	–	inactive
C(#C[PH+](c1ccccc1)c1ccccc1)c1ccccc1.C(#C[PH+](c1ccccc1)c1ccccc1)c1ccccc1.C(#C[PH+](c1ccccc1)c1ccccc1)c1ccccc1.[C-]#[O+].[C-]#[O+].[C-]#[O+].[W]	> 0.676	> 0.676	–
C[C@]12CCC(=O)C(O)=C1CC[C@@H]1C2CC[C@]2(C)Nc3c(cnn3-c3ccccc3)CC12 (stereo partly specified)	–	–	inactive
Cc1nnc2n1-c1ccccc1-c1[nH]c3ccccc3c1C2	> 200	22.4	–
BrCc1cccc(C[P+](c2ccccc2)(c2ccccc2)c2ccccc2)c1	> 200	1.17	–
CC(C)(C)[Si](C)(C)OC[C@H]1O[C@@H](n2ccc(=O)[nH]c2=O)C(O[Si](C)(C)C(C)(C)C)[C@]12CCN(O)CO2 (stereo partly specified)	> 200	11.5	–
N#Cc1c(N2CCCC2)ncn(Cc2ccccc2)c1=O	> 200	> 200	–
CC(C)CC1=CC(=O)CN(CCc2c[nH]c3ccccc23)C1	> 240	126	–
CC12CC3(O)OC(O1)C1(COC(=O)c4ccccc4)C3C[C@@]21OC1OC(COC(=O)c2cc(O)c(O)c(O)c2)C(O)C(O)C1O (stereo partly specified)	–	–	inactive
CC(C)n1cc(C(C)(C)C)nc1SSc1nc(C(C)(C)C)cn1C(C)C	> 200	> 200	–
CCOC(=O)c1c(C(F)(F)F)oc2c1ccc1nc3nonc3nc12	> 53.7	11	–
CC1=C(OCCCl)C2CC1C1C(=O)N(c3ccccc3)C(=O)C21 (stereo unspecified)	> 389	> 389	–
COC(=O)C(Br)C1CCc2ccccc21 (stereo unspecified)	> 251	141	–
COc1nc2ccc(CNc3ccc(C(=O)O)cc3)cc2nc1OC	> 200	> 200	–
COC(=O)C(C(=O)C(=O)Nc1c(Cl)cc([N+](=O)[O-])cc1Cl)c1nc2cc(C)c(C)cc2[nH]c1=O (stereo unspecified)	> 97.7	> 97.7	–
CC(=O)CCS(=O)(=O)O	> 200	> 200	–

Compound	EC50 [µM]	IC50 [µM]	outcome
Clc1ccc(CN2COc3c(ccc4ccccc34)C2)cc1Cl	> 200	31.6	–
Cc1ccc2ccc3c(-c4ccccc4)cc(C)nc3c2n1.Cc1ccc2ccc3c(-c4ccccc4)cc(C)nc3c2n1.O=C1OC(C(O)C[O-])C(O)=C1O.[Cu+]	> 12.6	0.55	–
CCCCCCCCCCCCC(Br)C(=O)NCC(N)=O (stereo unspecified)	–	–	inactive
COc1ccc(-c2c(C#N)c(S)n(NS(=O)(=O)c3ccc(C)cc3)c(=O)c2C#N)cc1	> 200	9.33	–
O=C1c2cc([N+](=O)[O-])ccc2-c2c(S)cccc21	> 200	50.1	–
CC1=C(\C=C/C(C)=C/C=C/C(C)=C/C=C/C=C(C)\C=C\C=C(C)/C=C/C2=C(C)CCCC2(C)C)C(C)(C)CCC1	> 200	97.7	–
O=C1CSC(c2c[nH]c3ccccc23)N1c1ccc(Cl)cc1 (stereo unspecified)	> 110	> 110	–
Nc1ccn(C2OC(CO)CC2F)c(=O)n1 (stereo unspecified)	0.132	7.08	–
COc1ccccc1NC(=O)/C(=C/C1CC(=O)NC1=S)C(C)=O (stereo unspecified)	> 200	> 200	–
COC(=O)c1cc(C(=O)Nc2cc(C(=CCC[C@H]3CC[C@@]4(C)[C@@H](CC[C@@H]5[C@@H]4CC[C@]4(C)[C@@H](C(C)CCCC(C)C)CC[C@@H]54)C3)c3cc(NC(=O)c4ccc(OC)c(C(=O)OC)c4)c(OC)c(C(=O)OC)c3)cc(C(=O)OC)c2OC)ccc1OC (stereo partly specified)	> 100	> 100	–
CC(=O)OCC1OC(n2cc([N+](=O)[O-])c(=O)[nH]c2=O)C(OC(C)=O)C(OC(C)=O)C1OC(C)=O (stereo unspecified)	> 513	> 513	–
CN(NC(=O)c1ccco1)C1=NCCN1	> 200	> 200	–
N#Cc1c(NC(=S)NC(=O)c2ccccc2)nc2c(c1-c1ccccc1)CCCC2	> 200	141	–
CC(=O)Nc1ccc(S(=O)(=O)N/N=C/C(=O)O)cc1	> 200	> 200	–
Cc1cc(N(CCC#N)CCC#N)ccc1/C=N/NC(=O)c1ccccc1	> 200	7.41	–
O=C1CN=C(c2ccc[nH]2)c2cc(Cl)ccc2N1	2.45	3.98	–
Cc1nc(-n2nc(-c3ccccc3)cc2-c2ccccc2)sc1C(=O)/C=C/c1ccc([N+](=O)[O-])cc1	> 38	30.9	–
Cc1ccc(S(=O)(=O)N/N=C/c2oc(-c3ccccc3Cl)c(-c3ccccc3Cl)c2[N+](=O)[O-])cc1	> 7.08	> 7.08	–
CC(=O)O[C@]12CCCC1C1(O)C(O)CCCC12 (stereo partly specified)	> 200	> 200	–
O=C(CC(C(=O)c1cccs1)c1cccs1)c1ccsc1 (stereo unspecified)	> 200	11.7	–
Cc1noc(C(F)(F)Sc2ncccn2)n1	174	> 200	–
O=c1[nH]ccc2c1ccn2C1CC(O)C(CO)O1 (stereo unspecified)	–	–	inactive

Compound	EC50 [µM]	IC50 [µM]	outcome
COc1ccc(C2c3cc4c(cc3OC(N3CCCCC3)C2C)OCO4)cc1 (stereo unspecified)	> 200	> 200	–
O=C(/C=C/c1cccc(Cl)c1)c1ccccc1	> 11.2	> 11.2	–
CCC1(CC)COP(=S)(SCCOC(=O)c2ccccc2)OC1	> 200	46.8	–
C=C1C(=O)OC2CC(C)C3CC(O)OC(OCC)C3(C)CC12 (stereo unspecified)	> 83.2	15.5	–
CN(C)CCCNc1nnc(NCCCN(C)C)c2c(=O)c3sccc3[nH]c12	> 20	2.69	–
C=C(C)[C@H]1CC(=O)[C@@]2(C)C[C@H]3O[C@]3(C)CC/C=C(\C)CC[C@H]12	> 200	55	–
CC1(C)CC(=O)c2c(ccc(C(=O)C[C@@H](N)CO)c2N)O1	–	–	inactive
Cc1ccc(=O)n(Cc2ccccc2)n1	> 1260	912	–
Cc1c2ccccc2c(=O)n2c(-c3ccccn3)cccc12	> 200	120	–
CC1=[N+]([O-])C(C)(C)N(N=O)C1(C)C	> 200	> 200	–
O=C(NO)NCCCl	> 200	> 200	–
N#CCCC1(CCC#N)CCCCCCC(CCC#N)(CCC#N)C(=O)C1=O	> 200	> 200	–
CCOC(=O)C1C(c2ccc(OC)cc2)c2c([nH]n(-c3ccccc3)c2=O)CC1(C)O (stereo unspecified)	–	–	inactive
COC(=O)/C(C#N)=C(\Nc1ccccc1)N1CCCC1	> 200	138	–
O=Nc1c(-c2ccc(Cl)cc2)nc2ncccn12	> 200	38	–
N#Cc1ccccc1NC(=O)C(=O)C(C(=O)c1ccncc1)C1OC(=O)c2ccccc21 (stereo unspecified)	> 589	> 589	–
CC[N+](CC)=c1ccc2nc3c(cc(N)c4ccccc43)oc-2c1	> 200	3.8	–
O=C1Nc2ccc(Br)cc2/C1=c1/sc2nc3ccccc3n2c1=O	> 50.1	42.7	–
CC1C(C)(C)C23CC12C1(OCCO1)C3Br (stereo unspecified)	> 200	> 200	–
Cc1csc2nc3c(cnn3C)c(=S)n12	> 200	38.9	–
C/C=C(/CCCCOC1CCCCO1)[Si](C)(C)C (stereo unspecified)	–	–	inactive
O=c1c2c3c(sc2nc2n1N=CN(c1ccccc1)C2)CCCC3	> 200	> 200	–

Compound	EC50 [µM]	IC50 [µM]	outcome
O=C1NS(=O)(=O)NC1(c1ccccc1)c1ccccc1	–	–	inactive
COCC1=C(NNC(=O)c2ccncc2)[C@@]2(C)C(=CC1=O)Oc1c(C(C)=O)c(O)c(C)c(O)c12	> 200	47.9	–
NCCC(=O)NCS(=O)(=O)O	> 200	> 200	–
CC1COC(C)(C)P(=O)(c2ccccc2)C1 (stereo unspecified)	> 1050	> 1050	–
CC(=O)OCc1c(O)c2c([nH]c1=O)CCc1ccccc1-2	> 25.1	> 25.1	–
CN(C(=O)C1=CCC2(CC1)OCCO2)c1ccccc1I	> 200	> 200	–
O=C(CNc1ccccc1[N+](=O)[O-])Nn1cnc2ccc(S(=O)(=O)Nc3ccccc3[N+](=O)[O-])cc2c1=O	> 200	> 200	–
CCOC(=O)CCN1C(=O)C(=O)N(c2ccc(OC)cc2)C1=S	> 200	31.6	–
CC(C)=NNc1snnc1C(N)=O	> 200	> 200	–
O=Cc1ccc(-c2ccc(-c3ccc(CO)s3)o2)s1	–	–	inactive
Cc1ccc2c(c1)P(=O)(O)c1cc(C)ccc1O2	> 200	> 200	–
O=C1N=CC2(N=N2)C(=O)N1	> 200	15.5	–
Cc1ccc(S(=O)(=O)SC(S(=O)(=O)c2ccc(C)cc2)S(=O)(=O)c2ccc(C)cc2)cc1	> 355	148	–
CCCCCCNC(=O)CCN(C(=O)O)S(=O)(=O)c1ccc(NC(=O)c2ccccc2)cc1	> 380	> 380	–
CCOc1ccc(NC(=O)CC2SC(=Nc3ccc(Cl)cc3)NC2=O)cc1 (stereo unspecified)	> 617	> 617	–
CC(C)CC1C(=O)OC(C)(C)OC1=O	> 200	> 200	–
CN1CCN(C(=O)CCN2c3ccccc3Sc3ccccc32)CC1	> 513	117	–
N#C/C(=C\c1ccc(-c2ccccc2)cc1)c1ccc([N+](=O)[O-])cc1	> 200	> 200	–
O=S1c2ccccc2N=C(c2cccs2)CC1c1ccccc1O (stereo unspecified)	> 10.7	> 10.7	–
COC1(OC)CC2C=C(S(=O)(=O)c3ccccc3)C1N(Cc1ccccc1)C2=O (stereo unspecified)	–	–	inactive
